Test results as given in PubChem BioAssay (NCI).
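Dose response: 5 concentrations. Exposure: 48 h. Format: 96-well plates. Endpoint: linear interpolation; highest concentration if not reached. TGI denotes the concentration required for complete inhibition of growth.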

What follows are compounds tested on A498 renal (assay: inhibition of tumour cell growth, NCI panel, 48 h).

| SMILES | TGI [µM] |
| --- | --- |
| CCOC(=O)C1=C(OC(OCC)C(CC)[Se]c2ccccc2)CCC1 (stereo unspecified) | > 100 |
| CCCc1cc(OC(=O)c2c(O)cc(OC)cc2CCC)cc(O)c1C(=O)O | 98.8 |
| Cc1ccc(-c2cc(-c3ccccc3)c(C#N)c(=O)[nH]2)cc1 | > 100 |
| O=[N+]([O-])c1ccc(-c2nn3c(C45CC6CC(CC(C6)C4)C5)nnc3s2)c(Cl)c1 | > 100 |
| CCOC(=O)C(=CNc1ccc(F)c(F)c1)C(=O)OCC | > 100 |
| C1CCCN(NC2=NCCO2)CC1 | > 100 |
| O=C1NCN(c2ccccc2)C12CCN(CC1COc3ccccc3O1)CC2 (stereo unspecified) | > 100 |
| COC(=O)/C=C(\C)CCC1SC1(C)C (stereo unspecified) | > 100 |
| O=[N+]([O-])c1cccc2nccc(NCCN3CCOCC3)c12 | 29.3 |
| CCCCCCCCCCCCOCC1(COCCCCCCCCCCCC)COC(c2ccc(N)cc2)OC1 | > 100 |
| CCSC1=N/C(=C\c2ccco2)C(=O)N1 | > 100 |
| CCOC(=O)CCC(NC(=O)c1ccc(NC(OC)c2nc3cc(C(F)(F)F)ccc3nc2-c2ccccc2)cc1)C(=O)OCC (stereo unspecified) | 34.5 |
| CCCCOC/N=C(/N)NC#N | > 100 |
| COc1ccc2[nH]c3c(c2c1)[C@H]1CCC(C(C)(C)C)C[C@H]1[C@H]1C(=O)N(c2ccccc2)C(=O)[C@@H]31 (stereo partly specified) | 44.1 |

The compounds below were run on A549 NSCLC (assay: inhibition of tumour cell growth, NCI panel, 48 h).

| SMILES | TGI [µM] |
| --- | --- |
| C=C1C(=O)O[C@H]2C1C[C@H](O)[C@@]1(C)OC1CC[C@@]1(C)O[C@H]21 (stereo partly specified) | > 100 |
| CCOC(=O)C1=C(OC(OCC)C(CC)[Se]c2ccccc2)CCC1 (stereo unspecified) | > 100 |
| CCCc1cc(OC(=O)c2c(O)cc(OC)cc2CCC)cc(O)c1C(=O)O | > 100 |
| Cc1ccc(-c2cc(-c3ccccc3)c(C#N)c(=O)[nH]2)cc1 | > 100 |
| O=[N+]([O-])c1ccc(-c2nn3c(C45CC6CC(CC(C6)C4)C5)nnc3s2)c(Cl)c1 | > 100 |
| O=[N+]([O-])c1cccc(Nc2nc(Cl)nc(Cl)n2)c1 | > 100 |
| O=C1Oc2ccccc2C(=O)/C1=C/N1C(=O)CNC1=S | > 100 |
| CCOC(=O)C(=CNc1ccc(F)c(F)c1)C(=O)OCC | > 100 |
| COc1ccc(-c2nc(-c3cnccn3)n(C3OC(CO)C(O)C3O)n2)cc1 (stereo unspecified) | > 10 |
| CCCc1nc2c(n1CC)C(=O)c1ccccc1C2=O | > 100 |
| C1CCCN(NC2=NCCO2)CC1 | > 100 |
| O=C1NCN(c2ccccc2)C12CCN(CC1COc3ccccc3O1)CC2 (stereo unspecified) | > 100 |
| O=C1OC([C@H](O)c2cccnc2)c2ccccc21 (stereo partly specified) | > 10 |
| CO/C(=N\N=C\c1ccc(Cl)c(Cl)c1)c1ccncc1 | > 10 |
| COC(=O)/C=C(\C)CCC1SC1(C)C (stereo unspecified) | > 100 |
| C=C1C2=C(CCCC2)C(=O)OC12CCCCC2 | > 100 |
| COC(=O)C(=O)C(C(=O)C(=O)Nc1ccc(C)cc1C)c1nc2ccc(Cl)cc2[nH]c1=O (stereo unspecified) | > 100 |
| Cc1ccc(S(=O)(=O)N/N=C2/CCC3(O)CC2(C)CCC2[C@H]3CC2(C)C)cc1 (stereo partly specified) | > 100 |
| Cc1ccc(C(=O)Oc2ccccc2)cc1N=NN(C)C | > 100 |
| CC1=CCC(C(C)(C)NC(=O)c2ccccc2)C/C1=N/O (stereo unspecified) | > 100 |
| O=[N+]([O-])c1cccc2nccc(NCCN3CCOCC3)c12 | 43.3 |
| CCCCCCCCCCCCOCC1(COCCCCCCCCCCCC)COC(c2ccc(N)cc2)OC1 | > 100 |
| CCSC1=N/C(=C\c2ccco2)C(=O)N1 | > 100 |
| CCOC(=O)CCC(NC(=O)c1ccc(NC(OC)c2nc3cc(C(F)(F)F)ccc3nc2-c2ccccc2)cc1)C(=O)OCC (stereo unspecified) | 39.4 |
| CCCCOC/N=C(/N)NC#N | > 100 |
| COc1ccc2[nH]c3c(c2c1)[C@H]1CCC(C(C)(C)C)C[C@H]1[C@H]1C(=O)N(c2ccccc2)C(=O)[C@@H]31 (stereo partly specified) | > 75.8 |
| NC(=O)[N+](=CC(=S)Nc1ccccc1Cl)C(N)=O | > 100 |

The compounds below were run on ACHN renal (assay: inhibition of tumour cell growth, NCI panel, 48 h).

| SMILES | TGI [µM] |
| --- | --- |
| C=C1C(=O)O[C@H]2C1C[C@H](O)[C@@]1(C)OC1CC[C@@]1(C)O[C@H]21 (stereo partly specified) | 34.2 |
| CCOC(=O)C1=C(OC(OCC)C(CC)[Se]c2ccccc2)CCC1 (stereo unspecified) | > 100 |
| CCCc1cc(OC(=O)c2c(O)cc(OC)cc2CCC)cc(O)c1C(=O)O | 80.2 |
| Cc1ccc(-c2cc(-c3ccccc3)c(C#N)c(=O)[nH]2)cc1 | > 100 |
| O=[N+]([O-])c1ccc(-c2nn3c(C45CC6CC(CC(C6)C4)C5)nnc3s2)c(Cl)c1 | > 100 |
| O=[N+]([O-])c1cccc(Nc2nc(Cl)nc(Cl)n2)c1 | > 100 |
| O=C1Oc2ccccc2C(=O)/C1=C/N1C(=O)CNC1=S | > 100 |
| CCOC(=O)C(=CNc1ccc(F)c(F)c1)C(=O)OCC | > 100 |
| COc1ccc(-c2nc(-c3cnccn3)n(C3OC(CO)C(O)C3O)n2)cc1 (stereo unspecified) | > 10 |
| CCCc1nc2c(n1CC)C(=O)c1ccccc1C2=O | > 100 |
| C1CCCN(NC2=NCCO2)CC1 | > 100 |
| O=C1NCN(c2ccccc2)C12CCN(CC1COc3ccccc3O1)CC2 (stereo unspecified) | > 100 |
| O=C1OC([C@H](O)c2cccnc2)c2ccccc21 (stereo partly specified) | > 10 |
| CO/C(=N\N=C\c1ccc(Cl)c(Cl)c1)c1ccncc1 | > 10 |
| COC(=O)/C=C(\C)CCC1SC1(C)C (stereo unspecified) | > 100 |
| C=C1C2=C(CCCC2)C(=O)OC12CCCCC2 | > 100 |
| COC(=O)C(=O)C(C(=O)C(=O)Nc1ccc(C)cc1C)c1nc2ccc(Cl)cc2[nH]c1=O (stereo unspecified) | > 100 |
| Cc1ccc(S(=O)(=O)N/N=C2/CCC3(O)CC2(C)CCC2[C@H]3CC2(C)C)cc1 (stereo partly specified) | > 100 |
| Cc1ccc(C(=O)Oc2ccccc2)cc1N=NN(C)C | > 100 |
| O=[N+]([O-])c1cccc2nccc(NCCN3CCOCC3)c12 | > 59.4 |
| CCCCCCCCCCCCOCC1(COCCCCCCCCCCCC)COC(c2ccc(N)cc2)OC1 | > 100 |
| CCSC1=N/C(=C\c2ccco2)C(=O)N1 | > 100 |
| CCOC(=O)CCC(NC(=O)c1ccc(NC(OC)c2nc3cc(C(F)(F)F)ccc3nc2-c2ccccc2)cc1)C(=O)OCC (stereo unspecified) | 30.2 |
| CCCCOC/N=C(/N)NC#N | > 100 |
| COc1ccc2[nH]c3c(c2c1)[C@H]1CCC(C(C)(C)C)C[C@H]1[C@H]1C(=O)N(c2ccccc2)C(=O)[C@@H]31 (stereo partly specified) | 18.4 |
| NC(=O)[N+](=CC(=S)Nc1ccccc1Cl)C(N)=O | > 100 |

Each compound was assayed on BT-549 breast (assay: inhibition of tumour cell growth, NCI panel, 48 h).

| SMILES | TGI [µM] |
| --- | --- |
| C=C1C(=O)O[C@H]2C1C[C@H](O)[C@@]1(C)OC1CC[C@@]1(C)O[C@H]21 (stereo partly specified) | 26.9 |
| O=C1Oc2ccccc2C(=O)/C1=C/N1C(=O)CNC1=S | > 100 |
| COc1ccc(-c2nc(-c3cnccn3)n(C3OC(CO)C(O)C3O)n2)cc1 (stereo unspecified) | > 10 |
| CCCc1nc2c(n1CC)C(=O)c1ccccc1C2=O | > 100 |
| COC(=O)C(=O)C(C(=O)C(=O)Nc1ccc(C)cc1C)c1nc2ccc(Cl)cc2[nH]c1=O (stereo unspecified) | > 100 |
| Cc1ccc(S(=O)(=O)N/N=C2/CCC3(O)CC2(C)CCC2[C@H]3CC2(C)C)cc1 (stereo partly specified) | 86.4 |
| Cc1ccc(C(=O)Oc2ccccc2)cc1N=NN(C)C | > 100 |
| CC1=CCC(C(C)(C)NC(=O)c2ccccc2)C/C1=N/O (stereo unspecified) | > 100 |
| NC(=O)[N+](=CC(=S)Nc1ccccc1Cl)C(N)=O | > 100 |

Each compound was assayed on CCRF-CEM leukemia (assay: inhibition of tumour cell growth, NCI panel, 48 h).

| SMILES | TGI [µM] |
| --- | --- |
| C=C1C(=O)O[C@H]2C1C[C@H](O)[C@@]1(C)OC1CC[C@@]1(C)O[C@H]21 (stereo partly specified) | 8.68 |
| CCOC(=O)C1=C(OC(OCC)C(CC)[Se]c2ccccc2)CCC1 (stereo unspecified) | 36.2 |
| CCCc1cc(OC(=O)c2c(O)cc(OC)cc2CCC)cc(O)c1C(=O)O | 95.4 |
| Cc1ccc(-c2cc(-c3ccccc3)c(C#N)c(=O)[nH]2)cc1 | > 100 |
| O=[N+]([O-])c1ccc(-c2nn3c(C45CC6CC(CC(C6)C4)C5)nnc3s2)c(Cl)c1 | > 100 |
| O=[N+]([O-])c1cccc(Nc2nc(Cl)nc(Cl)n2)c1 | > 100 |
| O=C1Oc2ccccc2C(=O)/C1=C/N1C(=O)CNC1=S | > 100 |
| CCOC(=O)C(=CNc1ccc(F)c(F)c1)C(=O)OCC | > 100 |
| COc1ccc(-c2nc(-c3cnccn3)n(C3OC(CO)C(O)C3O)n2)cc1 (stereo unspecified) | > 10 |
| CCCc1nc2c(n1CC)C(=O)c1ccccc1C2=O | > 100 |
| C1CCCN(NC2=NCCO2)CC1 | > 100 |
| O=C1NCN(c2ccccc2)C12CCN(CC1COc3ccccc3O1)CC2 (stereo unspecified) | > 100 |
| O=C1OC([C@H](O)c2cccnc2)c2ccccc21 (stereo partly specified) | > 10 |
| CO/C(=N\N=C\c1ccc(Cl)c(Cl)c1)c1ccncc1 | > 10 |
| COC(=O)/C=C(\C)CCC1SC1(C)C (stereo unspecified) | > 100 |
| C=C1C2=C(CCCC2)C(=O)OC12CCCCC2 | > 100 |
| COC(=O)C(=O)C(C(=O)C(=O)Nc1ccc(C)cc1C)c1nc2ccc(Cl)cc2[nH]c1=O (stereo unspecified) | > 100 |
| Cc1ccc(S(=O)(=O)N/N=C2/CCC3(O)CC2(C)CCC2[C@H]3CC2(C)C)cc1 (stereo partly specified) | 86.1 |
| Cc1ccc(C(=O)Oc2ccccc2)cc1N=NN(C)C | > 100 |
| CC1=CCC(C(C)(C)NC(=O)c2ccccc2)C/C1=N/O (stereo unspecified) | > 100 |
| O=[N+]([O-])c1cccc2nccc(NCCN3CCOCC3)c12 | > 64.8 |
| CCSC1=N/C(=C\c2ccco2)C(=O)N1 | > 100 |
| CCOC(=O)CCC(NC(=O)c1ccc(NC(OC)c2nc3cc(C(F)(F)F)ccc3nc2-c2ccccc2)cc1)C(=O)OCC (stereo unspecified) | > 21.7 |
| COc1ccc2[nH]c3c(c2c1)[C@H]1CCC(C(C)(C)C)C[C@H]1[C@H]1C(=O)N(c2ccccc2)C(=O)[C@@H]31 (stereo partly specified) | > 52 |
| NC(=O)[N+](=CC(=S)Nc1ccccc1Cl)C(N)=O | > 100 |

These compounds were tested on EKVX NSCLC (assay: inhibition of tumour cell growth, NCI panel, 48 h).

| SMILES | TGI [µM] |
| --- | --- |
| C=C1C(=O)O[C@H]2C1C[C@H](O)[C@@]1(C)OC1CC[C@@]1(C)O[C@H]21 (stereo partly specified) | 38.4 |
| CCOC(=O)C1=C(OC(OCC)C(CC)[Se]c2ccccc2)CCC1 (stereo unspecified) | 91.2 |
| CCCc1cc(OC(=O)c2c(O)cc(OC)cc2CCC)cc(O)c1C(=O)O | 86.8 |
| Cc1ccc(-c2cc(-c3ccccc3)c(C#N)c(=O)[nH]2)cc1 | > 100 |
| O=[N+]([O-])c1ccc(-c2nn3c(C45CC6CC(CC(C6)C4)C5)nnc3s2)c(Cl)c1 | > 100 |
| O=[N+]([O-])c1cccc(Nc2nc(Cl)nc(Cl)n2)c1 | > 100 |
| O=C1Oc2ccccc2C(=O)/C1=C/N1C(=O)CNC1=S | > 100 |
| CCOC(=O)C(=CNc1ccc(F)c(F)c1)C(=O)OCC | > 100 |
| COc1ccc(-c2nc(-c3cnccn3)n(C3OC(CO)C(O)C3O)n2)cc1 (stereo unspecified) | > 10 |
| C1CCCN(NC2=NCCO2)CC1 | > 100 |
| O=C1NCN(c2ccccc2)C12CCN(CC1COc3ccccc3O1)CC2 (stereo unspecified) | 98.2 |
| O=C1OC([C@H](O)c2cccnc2)c2ccccc21 (stereo partly specified) | > 10 |
| COC(=O)/C=C(\C)CCC1SC1(C)C (stereo unspecified) | > 100 |
| C=C1C2=C(CCCC2)C(=O)OC12CCCCC2 | > 100 |
| COC(=O)C(=O)C(C(=O)C(=O)Nc1ccc(C)cc1C)c1nc2ccc(Cl)cc2[nH]c1=O (stereo unspecified) | > 100 |
